Laboratory results published in the NIST ThermoML archive (doi:10.1016/j.jct.2015.08.014).
± gives the expanded uncertainty stated by the source.

How the values were obtained:
[1] = 101.33 kPa, Liquid; for viscosity: Capillary tube (Ostwald / Ubbelohde) method; for mass density: Vibrating tube method
[2] = xn = mol fraction of the nth substance listed; conditions: 100 kPa, Liquid, x2 = 0; for viscosity: Capillary tube (Ostwald / Ubbelohde) method; for mass density: Vibrating tube method

O=C1CCCO1 [γ-butyrolactone]
viscosity ([1]; 273.15 K): 2.69 ± 0.06 mPa·s | mass density ([1]; 273.15 K): 1149.15 ± 9.2 kg/m3 | viscosity ([1]; 278.15 K): 2.43 ± 0.05 mPa·s | mass density ([1]; 278.15 K): 1144.23 ± 9.2 kg/m3 | viscosity ([1]; 283.15 K): 2.21 ± 0.05 mPa·s | mass density ([1]; 283.15 K): 1139.31 ± 9.1 kg/m3 | viscosity ([1]; 288.15 K): 2.02 ± 0.04 mPa·s | mass density ([1]; 288.15 K): 1134.4 ± 9.1 kg/m3 | viscosity ([1]; 293.15 K): 1.86 ± 0.04 mPa·s | mass density ([1]; 293.15 K): 1129.49 ± 9 kg/m3 | viscosity ([1]; 298.15 K): 1.71 ± 0.04 mPa·s | mass density ([1]; 298.15 K): 1124.59 ± 9 kg/m3 | viscosity ([1]; 303.15 K): 1.58 ± 0.03 mPa·s | mass density ([1]; 303.15 K): 1119.68 ± 9 kg/m3 | viscosity ([1]; 308.15 K): 1.47 ± 0.03 mPa·s | mass density ([1]; 308.15 K): 1114.78 ± 8.9 kg/m3 | viscosity ([1]; 313.15 K): 1.37 ± 0.03 mPa·s | mass density ([1]; 313.15 K): 1109.87 ± 8.9 kg/m3 | viscosity ([1]; 318.15 K): 1.28 ± 0.03 mPa·s | mass density ([1]; 318.15 K): 1104.96 ± 8.8 kg/m3 | viscosity ([1]; 323.15 K): 1.2 ± 0.03 mPa·s | mass density ([1]; 323.15 K): 1100.05 ± 8.8 kg/m3 | mass density ([1]; 328.15 K): 1095.14 ± 8.8 kg/m3 | mass density ([1]; 333.15 K): 1090.22 ± 8.7 kg/m3

O=C1CCCO1 [γ-butyrolactone] + CCCC[N+]1(C)CCCC1.N#CN=C=[N-]
viscosity ([2]; 273.15 K): 2.69 ± 0.06 mPa·s | mass density ([2]; 273.15 K): 1149.15 ± 9.2 kg/m3 | viscosity ([2]; 283.15 K): 2.21 ± 0.05 mPa·s | mass density ([2]; 283.15 K): 1139.31 ± 9.1 kg/m3 | viscosity ([2]; 293.15 K): 1.86 ± 0.04 mPa·s | mass density ([2]; 293.15 K): 1129.49 ± 9 kg/m3 | viscosity ([2]; 298.15 K): 1.71 ± 0.04 mPa·s | mass density ([2]; 298.15 K): 1124.59 ± 9 kg/m3 | viscosity ([2]; 303.15 K): 1.58 ± 0.03 mPa·s | mass density ([2]; 303.15 K): 1119.68 ± 9 kg/m3 | viscosity ([2]; 313.15 K): 1.37 ± 0.03 mPa·s | mass density ([2]; 313.15 K): 1109.87 ± 8.9 kg/m3 | viscosity ([2]; 323.15 K): 1.2 ± 0.03 mPa·s | mass density ([2]; 323.15 K): 1100.05 ± 8.8 kg/m3
